Data taken from patent US20100234395A1, “UREIDE DERIVATIVE AND PHARMACEUTICAL APPLICATION THEREOF” (TORAY INDUSTRIES, INC., priority 2006, published 2010).
Where two headings read alike, the source gives them in different places.

Assays:
COX-2 = molecular target: T1, COX-2 (Homo sapiens, UniProt P35354); experiment: Activity of inhibiting COX-2 in human blood (prostaglandin E2 after lipopolysaccharide); assay type: cell-based; details: prostaglandin E2 production
T1 construct: Human blood that had been sampled with the use of heparin (19 units/ml) was used; from tissue; host or cells: human whole blood (heparinised), aspirin-pretreated, stimulated with lipopolysaccharide
T1 sequence (P35354 18-604): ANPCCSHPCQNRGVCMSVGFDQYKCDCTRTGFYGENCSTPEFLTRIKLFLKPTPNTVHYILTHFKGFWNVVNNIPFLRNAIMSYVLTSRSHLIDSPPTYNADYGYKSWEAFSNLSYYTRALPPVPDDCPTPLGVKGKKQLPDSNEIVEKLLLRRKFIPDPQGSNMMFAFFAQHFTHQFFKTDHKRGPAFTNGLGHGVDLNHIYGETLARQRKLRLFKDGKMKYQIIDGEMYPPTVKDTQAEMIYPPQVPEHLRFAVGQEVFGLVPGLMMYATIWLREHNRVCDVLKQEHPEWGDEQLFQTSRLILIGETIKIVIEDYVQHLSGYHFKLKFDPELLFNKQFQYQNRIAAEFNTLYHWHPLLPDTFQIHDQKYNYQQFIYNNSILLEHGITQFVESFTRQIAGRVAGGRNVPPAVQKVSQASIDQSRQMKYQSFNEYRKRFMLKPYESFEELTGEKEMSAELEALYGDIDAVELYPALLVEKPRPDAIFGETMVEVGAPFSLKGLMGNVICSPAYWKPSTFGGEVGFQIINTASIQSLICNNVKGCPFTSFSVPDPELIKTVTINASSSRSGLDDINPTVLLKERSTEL
Method: Human blood that had been sampled with the use of heparin (19 units/ml) was used. Blood was fractionated to reaction tubes in amounts of 500 μl, aspirin (12 μg/ml) was added thereto, and the resultants were incubated at 37° C. for 6 hours. Thereafter, the test compound or solvent, and lipopolysaccharide (10 μg/ml) were added, and the reaction was allowed to proceed for 18 hours. After the completion of the reaction, the supernatant (blood plasma) was recovered via centrifugation at 4° C., and the amount of prostaglandin E2 in the plasma was quantified using a kit (514010, Cayman Chemical). Dimethyl sulfoxide (DMSO) was used as a solvent for the test compound. The amount of prostaglandin E2 produced via the addition of lipopolysaccharide was designated as 100%, and the concentration of the test compound that inhibits 50% of such reaction was represented by the IC50 value.

COX-1 = molecular target: T2, COX-1 (Homo sapiens, UniProt P23219); experiment: Activity of inhibiting COX-1 in human blood (thromboxane B2 after ionomycin); assay type: cell-based; details: thromboxane B2 production
T2 construct: Human blood that had been sampled with the use of heparin (19 units/ml) was used; from tissue; host or cells: human whole blood (heparinised)
Method: Human blood that had been sampled with the use of heparin (19 units/ml) was used. Blood was fractionated to reaction tubes in amounts of 500 μl, the test compound or solvent was added thereto, and the resultants were incubated at 37° C. for 60 minutes. Dimethyl sulfoxide (DMSO) was used as a solvent for the test compound. Thereafter, ionomycin (30 nM) was added, and the reaction was allowed to proceed for 30 minutes. After the completion of the reaction, the supernatant (blood plasma) was recovered via centrifugation at 4° C., and the amount of thromboxane B2 in the plasma was quantified using a kit (519031, Cayman Chemical). The amount of thromboxane B2 produced via the addition of ionomycin was designated as 100%, and the concentration of the test compound that inhibits 50% of such reaction was represented by the IC50 value.

ddY mice [1] = experiment: Acetic acid writhing test in mice (analgesic effects); assay type: in vivo; details: for ED50: Mus musculus; for activity ratio (analgesic effects): subcutaneous administration
Method: ddY mice were grown for at least 16 hours under fasting conditions while free water intake was allowed, and a solution of the test compound or a solvent was orally administered thereto (0.1 ml/10 g). As a solvent for a solution of the test compound, dimethyl sulfoxide (DMSO):Tween 80:27% hydroxypropyl-P-cyclodextrin (hereafter abbreviated to “HP-β-CD”) (1:1:8) or 27% HP-β-CD was used. A solution of 0.6% acetic acid (0.1 ml/10 g) was administered intraperitoneally 45 minutes after administration to induce a writhing reaction (i.e., a movement of stretching or arching the body). The number of the writhing reactions that had occurred for the period from 10 minutes after administration of the acetic acid solution to 10 minutes thereafter was counted, and the number of times was designated as an indicator of pain. The number of times of reactions in the group to which a solvent had been administered was designated as 100%, and the concentration of the test compound that had inhibited 50% of such reaction was designated as the ED50 value.
The compound of Reference Example 78 is disclosed in the claims of JP Patent Publication (kohyo) No. 2006-517535 A, the compounds of Reference Examples 93 and 199 are disclosed in the claims of JP Patent No. 3003148, and the compound of Reference Example 103 is disclosed in the claims of JP Patent Publication (kohyo) No. 2006-514095 A. Thus, these compounds were compared with the compounds of the present invention having similar structures in terms of analgesic effects with oral administration (Table 4) or subcutaneous administration (Table 5). Dimethyl sulfoxide (DMSO):Tween 80:27% HP-β-CD (1:1:8) or 27% HP-β-CD was used as a solvent for the test compound.

ICR mice = experiment: Partial sciatic nerve ligation model in mice (Seltzer model), von Frey test; assay type: in vivo; details: 7 days after ligation, FIG. 1
Method: Analgesic effects of the compound of the present invention were evaluated using the partial sciatic nerve ligation model (Seltzer models) in mice, with which neuropathic pain can be evaluated.
Models of neuropathic pain were prepared in accordance with the method of Seltzer et al. ICR mice (5-week-old, male) were put under anesthesia with sodium pentobarbital (70 mg/kg, i.p.) to expose the sciatic nerve of the femoral region of the right posterior limb, and half of the sciatic nerve was strongly and triply ligated using 8-0 silk yarn (Natsume Seisakusho, Co., Ltd.) under a microscope (this group is designated as the “ligation group”). The group that had been subjected to exposure of the sciatic nerve without ligation was designated as a sciatic nerve control group (i.e., the “sham group”). […] The von Frey tests were performed 1 hour, 2 hours, and 3 hours after the oral administration for determining the pre-values prior to the administration of the test substances, which took place 7 days after the ligation surgery of sciatic nerve, and such values were designated as the indicators of analgesic effects. Gabapentin (30 mg/kg, po) was used as a positive control. As a solvent for the test compound, 27% HP—P—CD was used.
The obtained data were processed by performing a paired t-test amongst several groups and correcting the data via Dunnett's method.
The compound of Reference Example 78 is disclosed in the claims of JP Patent Publication (kohyo) No. 2006-517535 A, the compounds of Reference Example 93 and Reference Example 199 are disclosed in the claims of JP Patent No. 3003148, and the compound of Reference Example 103 is disclosed in the claims of JP Patent Publication (kohyo) No. 2006-514095 A. Accordingly, sulfate of Reference Example 78, toluenesulfonate of Reference Example 93, the free compound of Reference Example 199, and sulfate of Reference Example 103 were used as test compounds and evaluated using mouse models of partial sciatic nerve ligation, which were similar to those used in Example 79. 27% HP-β-CD was used as a solvent for the test compounds.

ddY mice [2] = experiment: Formalin test in mice; assay type: in vivo; details: oral 10 mg/kg, FIG. 2; for indicator of pain (licking time), phase II: 10 to 30 minutes after formalin; for indicator of pain (licking time), phase I: within 10 minutes after formalin
Method: ddY mice were grown for at least 16 hours under fasting conditions while free water intake was allowed, and a solution of the test compound or a solvent was orally administered thereto (0.1 ml/10 g). As a solvent for a solution of the test compound, 27% HP-β-CD was used. Thirty minutes after administration, 20 μl of a 2.5% formalin solution was subcutaneously administered to the ichnograms of right posterior legs of mice to induce a movement of licking. A movement of mice to lick the treated legs was designated as an indicator of pain, and the licking time was measured at 5-minute intervals for 30 minutes. The reaction that had occurred within 10 minutes immediately after administration of the formalin solution was designated as the phase I reaction, and the reaction that had occurred 10 to 30 minutes after administration was designated as the phase II reaction.

[3] = oral administration 45 minutes before 0.6% acetic acid i.p., 50% inhibition of writhing reactions, read-out: ED50 (mg/kg)[90% confidence limit]
[4] = oral administration of 3 and 10 mg/kg of Example 27 and Example 40, respectively
[5] = sc, Table 5, subcutaneous administration, read-out: ED50 (mg/kg) [90% confidence limit]

T2 sequence (P23219 24-599): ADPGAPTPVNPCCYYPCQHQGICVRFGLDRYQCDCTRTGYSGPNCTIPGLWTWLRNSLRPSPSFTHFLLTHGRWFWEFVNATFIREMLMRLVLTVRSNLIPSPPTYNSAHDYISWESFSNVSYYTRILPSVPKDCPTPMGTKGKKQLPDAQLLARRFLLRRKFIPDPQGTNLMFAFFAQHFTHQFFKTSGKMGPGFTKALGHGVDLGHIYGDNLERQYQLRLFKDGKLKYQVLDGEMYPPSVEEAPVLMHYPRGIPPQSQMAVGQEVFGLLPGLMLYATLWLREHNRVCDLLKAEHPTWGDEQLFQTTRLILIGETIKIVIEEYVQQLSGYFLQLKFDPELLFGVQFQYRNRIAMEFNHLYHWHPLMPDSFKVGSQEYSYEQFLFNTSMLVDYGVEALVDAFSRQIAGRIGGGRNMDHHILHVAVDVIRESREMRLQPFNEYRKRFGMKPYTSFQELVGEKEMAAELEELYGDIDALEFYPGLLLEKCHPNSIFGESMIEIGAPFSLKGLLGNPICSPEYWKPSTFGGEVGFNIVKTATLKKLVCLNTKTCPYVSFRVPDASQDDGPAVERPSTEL

| IC50 (COX-2) [µM] | IC50 (COX-1) [µM] | Structure (SMILES) | ED50 (ddY mice [1]; [3]) [mg/kg] | results of the von Frey test (ICR mice; oral administration of 10 mg/kg) | indicator of pain (licking time), phase II (ddY mice [2]) | indicator of pain (licking time), phase I (ddY mice [2]) | results of the von Frey test (ICR mice; [4]) | ED50 (ddY mice [1]; [5]) [mg/kg] | activity ratio (analgesic effects) (ddY mice [1]; compared with Reference Example 93 (toluenesulfonate)) | activity ratio (analgesic effects) (ddY mice [1]; compared with Reference Example 199) | activity ratio (analgesic effects) (ddY mice [1]; compared with Reference Example 103 (sulfate)) |
| --- | --- | --- | --- | --- | --- | --- | --- | --- | --- | --- | --- |
| > 10 | < 0.1 | COc1ccc(-c2nc(C3CCN(C(=O)N(C)O)CC3)oc2-c2ccc(C)cc2)cc1 [Example 7, 4-(4-(4-Methoxyphenyl)-5-(4-tolyl)oxazol-2-yl)-1-(N-hydroxy-N-methylcarbamoyl)piperidine] | 3.27 |  |  |  |  |  |  |  |  |
| > 10 | < 0.1 | COc1ccc(-c2nc(C3CCN(C(=O)N(C)O)CC3)oc2-c2ccc(F)cc2)cc1 [Example 9, 4-(5-(4-Fluorophenyl)-4-(4-methoxyphenyl)oxazol-2-yl)-1-(N-hydroxy-N-methylcarbamoyl)-piperidine] | 2.63 |  |  |  |  |  |  |  |  |
| > 10 | < 0.1 | COc1ccc(-c2oc(C3CCN(C(=O)N(C)O)CC3)nc2-c2ccc(Cl)cc2)cc1 [Example 12, 4-(4-(4-Chlorophenyl)-5-(4-methoxyphenyl)oxazol-2-yl)-1-(N-hydroxy-N-methylcarbamoyl)-piperidine] | 2.29 |  |  |  |  |  |  |  |  |
| > 10 | < 0.1 | COC(=O)C1(c2nc(-c3ccc(OC)cc3)c(-c3ccc(OC)cc3)o2)CCN(C(=O)N(C)O)CC1 [Example 14, Methyl 4-(4,5-bis(4-methoxyphenyl)oxazol-2-yl)-1-(N-hydroxy-N-methylcarbamoyl)-4-piperidinecarboxylate] | 4.17 | significantly improved |  |  |  |  |  |  |  |
| > 10 | < 0.1 | COc1ccc(-c2nc(C3CCN(C(=O)N(C)O)CC3)oc2-c2ccc(Cl)cc2)cc1 [Example 20, 4-(5-(4-Chlorophenyl)-4-(4-methoxyphenyl)oxazol-2-yl)-1-(N-hydroxy-N-methylcarbamoyl)-piperidine] | 6.45 |  |  |  |  |  |  |  |  |
| > 10 | < 0.1 | COc1ccc(-c2nc(C3CCN(C(=O)N(C)O)CC3)sc2-c2ccc(OC)cc2)cc1 [Example 27, 4-(4,5-Bis(4-methoxyphenyl)thiazol-2-yl)-1-(N-hydroxy-N-methylcarbamoyl)piperidine] | 2.46 |  | significantly improved | significantly improved | significantly improved | 1.82 | at least 54 times | about 19 times |  |
| > 10 | < 0.1 | COc1ccc(-c2cc(C3CCN(C(=O)N(C)O)CC3)nn2-c2ccc(OC)cc2)cc1 [Example 40, 4-(1,5-Bis(4-methoxyphenyl)-1H-pyrazol-3-yl)-1-(N-hydroxy-N-methylcarbamoyl)piperidine] | 1.64 |  | significantly improved | significantly improved | significantly improved | 2.47 |  |  | at least 40 times |
| > 10 | < 0.1 | COc1ccc(-c2nc(C3(C#N)CCN(C(=O)N(C)O)CC3)oc2-c2ccc(OC)cc2)cc1 [Example 47, 4-(4,5-Bis(4-methoxyphenyl)oxazol-2-yl)-4-cyano-1-(N-hydroxy-N-methylcarbamoyl)piperidine] | 3.3 |  |  |  |  |  |  |  |  |
| > 10 | < 0.1 | COc1ccc(-c2nc(C3(C#N)CCN(C(=O)N(C)O)CC3)sc2-c2ccc(OC)cc2)cc1 [Example 56, 4-(4,5-Bis(4-methoxyphenyl)thiazol-2-yl)-4-cyano-1-(N-hydroxy-N-methylcarbamoyl)piperidine] | 4.61 |  |  |  |  |  |  |  |  |
| > 10 | < 0.1 | COc1ccc(-n2nc(C3CCN(C(=O)N(C)O)CC3)cc2-c2ccc(C)cc2)cc1 [Example 69, 4-(1-(4-Methoxyphenyl)-5-(4-tolyl)-1H-pyrazol-3-yl)-1-(N-hydroxy-N-methylcarbamoyl)piperidine] | 3.19 |  |  |  |  |  |  |  |  |
